Literature values, collected in patent publication US10869938B2, “Magnetic resonance imaging” (1C TARGETS AS, priority 2007, dated 2020).
Read-outs that look alike come from different tables or passages of the source.

System: healthy myocardial cells
Conditions: healthy individuals

SMILES: Cc1ncc(COP(=O)(O)O)c(CN(CCN(CC(=O)[O-])Cc2c(COP(=O)(O)O)cnc(C)c2O)CC(=O)[O-])c1O.[Mn+2] [MnDPDP, manganese (II) chelate of N,N′-bis-(pyridoxal-5-phosphate)-ethylenediamine-N,N′-diacetic acid]
- manganese tissue concentration versus time curve (5 minute infusion): biphasic curve
- manganese tissue concentration versus time curve (30 minute infusion): increased steadily
